According to ChEMBL document CHEMBL1201862, “PubChem BioAssay data set” (2004):
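Cultured in 96-well plates, cells were exposed to test compound for 48 hours across five concentrations. GI50 = concentration required for 50% inhibition of growth.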 Calls of active or inactive are those of the source. Cut-off read from the data, not from the text of the source: active = GI50 up to about 1.1 µM and inactive = higher.

Experiments:
Assay in all cases: NCI-60 cell line screen, 48 h
SF-295 = test system: SF-295
M14 = test system: M14
SN12C = test system: SN12C
786-0 = test system: 786-0
EKVX = test system: EKVX
HT-29 = test system: HT-29
NCI-H522 = test system: NCI-H522
HCT-15 = test system: HCT-15
A549 = test system: A549
SK-MEL-2 = test system: SK-MEL-2
NCI-H460 = test system: NCI-H460
SW-620 = test system: SW-620
UACC-62 = test system: UACC-62
SF-539 = test system: SF-539
HOP-62 = test system: HOP-62
SR = test system: SR

| SMILES | GI50 (SF-295) | GI50 (M14) | GI50 (SN12C) | GI50 (786-0) | GI50 (EKVX) | GI50 (HT-29) | GI50 (NCI-H522) | GI50 (HCT-15) | GI50 (A549) | GI50 (SK-MEL-2) | GI50 (NCI-H460) | GI50 (SW-620) | GI50 (UACC-62) | GI50 (SF-539) | GI50 (HOP-62) | GI50 (SR) |
| --- | --- | --- | --- | --- | --- | --- | --- | --- | --- | --- | --- | --- | --- | --- | --- | --- |
| C/C(=N\N(C)C)C(CN(C)C)C(c1ccccc1)c1c(O)c2ccccc2oc1=O (centres undefined) | > 100 µM (inactive) | > 100 µM (inactive) | > 100 µM (inactive) | > 100 µM (inactive) | 68.7 µM (inactive) | > 100 µM (inactive) | > 100 µM (inactive) | > 100 µM | > 100 µM (inactive) | > 100 µM (inactive) | > 100 µM (inactive) | > 100 µM (inactive) | > 100 µM (inactive) |  |  |  |
| C[Si](C)(C)C1(Sc2ccccc2)SCCCS1 | 54.3 µM (inactive) | 49.8 µM (inactive) | 27 µM (inactive) | 46.5 µM (inactive) | 47.9 µM (inactive) | 38.5 µM (inactive) | 17.9 µM (inactive) | 27.2 µM | 31.9 µM (inactive) | 58.9 µM (inactive) | 52.8 µM (inactive) | 53.1 µM (inactive) | 35 µM (inactive) | 24.9 µM (inactive) | 29.7 µM (inactive) |  |
| CC(=O)Oc1c2c(c(O)c3ccccc13)C(n1cnc3c(ncn3C3OC(CO)C4OC(C)(C)OC43)c1=N)CCC2 (centres undefined) | 13.9 µM (inactive) |  | 18.1 µM (inactive) | 14.5 µM (inactive) | 22.2 µM (inactive) | 13.2 µM (inactive) | 5.87 µM (inactive) | 14.8 µM | 19.1 µM (inactive) | 15.4 µM (inactive) | 23.3 µM (inactive) | 15.3 µM (inactive) | 13.9 µM (inactive) | 18.2 µM (inactive) | 16.7 µM (inactive) |  |
| COC(=O)C(=O)C(CC(=O)Nc1cccc(C(F)(F)F)c1)C(=O)OC (centres undefined) |  | > 100 µM (inactive) | > 100 µM (inactive) | > 100 µM (inactive) | > 100 µM (inactive) |  | > 100 µM (inactive) | > 100 µM | > 100 µM (inactive) | > 100 µM (inactive) | > 100 µM (inactive) | > 100 µM (inactive) | > 100 µM (inactive) | > 100 µM (inactive) | > 100 µM (inactive) |  |
| O=C1COc2cc3c(cc2N1)SCCC(=O)N3 | > 100 µM (inactive) | > 100 µM (inactive) | > 100 µM (inactive) | > 100 µM (inactive) | > 100 µM (inactive) | > 100 µM (inactive) | > 100 µM (inactive) |  | > 100 µM (inactive) | > 100 µM (inactive) |  | > 100 µM (inactive) | > 100 µM (inactive) | > 100 µM (inactive) | > 100 µM (inactive) | > 100 µM (inactive) |
| COc1ccc2ccc([Se]c3ccc4ccc(OC)cc4c3)cc2c1 | 74.6 µM (inactive) | > 100 µM (inactive) | 90.6 µM (inactive) | 49.7 µM (inactive) |  | 50.1 µM (inactive) | 84.5 µM (inactive) | > 100 µM | > 100 µM (inactive) | > 100 µM (inactive) | 89.1 µM (inactive) | > 100 µM (inactive) | > 100 µM (inactive) | > 100 µM (inactive) | > 100 µM (inactive) |  |
| O=C(Cc1nc2ccccc2o1)C(=O)Nc1ccccc1C(F)(F)F | > 100 µM (inactive) | > 100 µM (inactive) | > 100 µM (inactive) | > 100 µM (inactive) | > 100 µM (inactive) | > 100 µM (inactive) | > 100 µM (inactive) | > 100 µM | > 100 µM (inactive) | > 100 µM (inactive) | > 100 µM (inactive) | > 100 µM (inactive) | > 100 µM (inactive) | > 100 µM (inactive) | > 100 µM (inactive) |  |
| CC(=O)OCC1(C)C(OC(C)=O)CCC2(C)C(CC(OC(C)=O)C3=CCOC3=O)C(O)(CO)CCC12 (centres undefined) | > 100 µM (inactive) | > 100 µM (inactive) | > 100 µM (inactive) | > 100 µM (inactive) | > 100 µM (inactive) | > 100 µM (inactive) | > 100 µM (inactive) |  | > 100 µM (inactive) |  | > 100 µM (inactive) | > 100 µM (inactive) | > 100 µM (inactive) | > 100 µM (inactive) | > 100 µM (inactive) |  |
| CCCCCc1cc(OC(=O)c2c(O)cc(OC)cc2CCCCC)cc(O)c1C(=O)O | 16.8 µM (inactive) | 20.4 µM (inactive) | 15.9 µM (inactive) | 16.4 µM (inactive) | 19 µM (inactive) | 14.2 µM (inactive) | 11.1 µM (inactive) | 12.6 µM | 17.8 µM (inactive) | 16.8 µM (inactive) | 15.9 µM (inactive) | 18.3 µM (inactive) | 14.5 µM (inactive) | 16.8 µM (inactive) | 16.4 µM (inactive) |  |
| NC(=O)NC12CC3CC(CC(F)(C3)C1)C2 |  | > 100 µM (inactive) |  | > 100 µM (inactive) | > 100 µM (inactive) | > 100 µM (inactive) | > 100 µM (inactive) |  | > 100 µM (inactive) | > 100 µM (inactive) | > 100 µM (inactive) | > 100 µM (inactive) | > 100 µM (inactive) | > 100 µM (inactive) | > 100 µM (inactive) |  |
| CCc1cccc(C)c1NC(=O)CCc1nnc2s/c(=C\c3cccc4ccccc34)c(=O)n12 | 71.1 µM (inactive) | 45.6 µM (inactive) | > 100 µM (inactive) | > 100 µM (inactive) |  | > 100 µM (inactive) | > 100 µM (inactive) | 89.1 µM | > 100 µM (inactive) | > 100 µM (inactive) | > 100 µM (inactive) | > 100 µM (inactive) | > 100 µM (inactive) | > 100 µM (inactive) | > 100 µM (inactive) |  |
| COC(=O)C(C#CCCCCC#CC(NC(=O)OCc1ccccc1)(C(=O)OC)C(F)(F)F)(NC(=O)OCc1ccccc1)C(F)(F)F (centres undefined) | > 100 µM (inactive) | > 100 µM (inactive) | > 100 µM (inactive) | > 100 µM (inactive) | > 100 µM (inactive) | > 100 µM (inactive) | > 100 µM (inactive) | > 100 µM | 73.6 µM (inactive) |  | > 100 µM (inactive) | > 100 µM (inactive) | > 100 µM (inactive) | > 100 µM (inactive) | > 100 µM (inactive) |  |
| CC(C#N)c1cn(S(=O)(=O)c2ccccc2)c2ccccc12 (centres undefined) | 34.4 µM (inactive) | 33.7 µM (inactive) |  | > 100 µM (inactive) |  | > 100 µM (inactive) | 27.7 µM (inactive) | 53.6 µM | 36.5 µM (inactive) | 37.1 µM (inactive) | 61.7 µM (inactive) | > 100 µM (inactive) | 55.1 µM (inactive) | 68.1 µM (inactive) | 37.5 µM (inactive) | 30.8 µM (inactive) |
| Cc1cccc(C(C)(C)C)c1NC(=O)CC1Sc2ccccc2NC1=O (centres undefined) | > 100 µM (inactive) | > 100 µM (inactive) | > 100 µM (inactive) | 46 µM (inactive) | > 100 µM (inactive) | 43 µM (inactive) | > 100 µM (inactive) |  | > 100 µM (inactive) |  | 34 µM (inactive) | 17.3 µM (inactive) | 68.7 µM (inactive) | > 100 µM (inactive) | > 100 µM (inactive) |  |
| CCC(CO)Nc1nc2c(c(=O)n(C)c(=O)n2C)n1CCO (centres undefined) | > 100 µM (inactive) |  | > 100 µM (inactive) | > 100 µM (inactive) | > 100 µM (inactive) | > 100 µM (inactive) |  | > 100 µM | > 100 µM (inactive) | > 100 µM (inactive) |  | > 100 µM (inactive) | > 100 µM (inactive) | > 100 µM (inactive) |  | > 100 µM (inactive) |
| CC(=O)Oc1c(C)n(CCCl)ccc1=O | > 100 µM (inactive) | > 100 µM (inactive) | > 100 µM (inactive) | > 100 µM (inactive) | > 100 µM (inactive) | > 100 µM (inactive) | > 100 µM (inactive) | 34.8 µM | > 100 µM (inactive) | > 100 µM (inactive) | 44.6 µM (inactive) |  | > 100 µM (inactive) |  | > 100 µM (inactive) | > 100 µM (inactive) |
| O=C(Nc1cccc([N+](=O)[O-])c1)C(=O)C(C(=O)c1ccccc1-c1ccccc1)C1OC(=O)c2ccccc21 (centres undefined) | 22 µM (inactive) | 17.8 µM (inactive) |  | 18.7 µM (inactive) | 25.6 µM (inactive) | 38.8 µM (inactive) | 11.4 µM (inactive) |  | 26.9 µM (inactive) | 17.9 µM (inactive) | 25.9 µM (inactive) | 27.2 µM (inactive) | 19.5 µM (inactive) | 14.5 µM (inactive) | 16.6 µM (inactive) |  |
| CC#C[C@@]1(O)CCCCC1O (some centres undefined) | > 100 µM (inactive) | > 100 µM (inactive) | > 100 µM (inactive) | > 100 µM (inactive) | > 100 µM (inactive) | > 100 µM (inactive) | > 100 µM (inactive) | > 100 µM | > 100 µM (inactive) | > 100 µM (inactive) | > 100 µM (inactive) | > 100 µM (inactive) | > 100 µM (inactive) | > 100 µM (inactive) | > 100 µM (inactive) |  |
| CC1=CC(/C=C(\C)CCCc2ccoc2)C2(OC(=O)C(C)=C2O)[C@H]2C1CC[C@@H]2C (some centres undefined) | 20.7 µM (inactive) | 23.1 µM (inactive) | 20.5 µM (inactive) | 14.6 µM (inactive) | 31.7 µM (inactive) | 34.3 µM (inactive) | 13.9 µM (inactive) | 15.5 µM | 23.4 µM (inactive) |  |  | 33.6 µM (inactive) | 14.4 µM (inactive) | 17.5 µM (inactive) |  |  |
| Cc1ccc2c(c1)C1(C)OC(CC(N)C1O)O2 (centres undefined) | > 100 µM (inactive) | > 100 µM (inactive) | > 100 µM (inactive) | > 100 µM (inactive) | > 100 µM (inactive) | > 100 µM (inactive) | > 100 µM (inactive) | > 100 µM | > 100 µM (inactive) | > 100 µM (inactive) | > 100 µM (inactive) | > 100 µM (inactive) | > 100 µM (inactive) | > 100 µM (inactive) | > 100 µM (inactive) |  |
